pIC50: −log10 of the molar value. The source made the active and inactive calls. The calls are words filed in the database; no cut-off is given here.
Key:
[1] = biological target: Serine/threonine-protein kinase mTOR (Homo sapiens, UniProt P42345); assay: Inhibition of mTOR (unknown origin) at 1 uM using U-Light-4E-BP1 peptide as a substrate in the presence of ATP incubated for 30 mins by Lance ultra assay relative to control
[2] = biological target: T1, Histone deacetylase 8 (Homo sapiens, UniProt Q9BY41); assay: Inhibition of HDAC8 (unknown origin) using Ac-peptide as a substrate pretreated for 15 mins followed by substrate addition
T1 sequence (Q9BY41 whole entry): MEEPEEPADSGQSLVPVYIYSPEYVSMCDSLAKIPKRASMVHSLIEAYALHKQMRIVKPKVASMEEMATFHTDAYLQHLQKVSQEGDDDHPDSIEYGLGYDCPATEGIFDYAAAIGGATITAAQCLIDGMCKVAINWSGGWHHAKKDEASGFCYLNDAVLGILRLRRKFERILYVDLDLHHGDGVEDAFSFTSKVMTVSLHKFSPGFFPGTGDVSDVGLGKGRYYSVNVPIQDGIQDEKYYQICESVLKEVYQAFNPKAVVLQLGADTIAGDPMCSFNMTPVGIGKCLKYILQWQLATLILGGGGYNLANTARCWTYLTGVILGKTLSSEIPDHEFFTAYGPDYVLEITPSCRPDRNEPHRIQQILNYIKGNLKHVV

[3] = Metabolic stability in rat liver microsomes assessed as parent compound remaining at 10 ug/ml measured after 1 hr in the presence of NADPH by HPLC analysis; type: ADME, Microsome; conditions: liver microsomes, at 10 µg/mL, read-out: Stabilty
[4] = in vitro; conditions: human, L02 cells versus HepG2 cells
Description: Selectivity index, ratio of IC50 for cytotoxicity against human L02 cells to IC50 for antiproliferative activity against human HepG2 cells

[5] = biological target: T2, Protein deacetylase HDAC6 (Homo sapiens) (UniProt Q9UBN7); assay: Inhibition of HDAC6 (unknown origin) at 1 uM using Ac-peptide as a substrate pretreated for 15 mins followed by substrate addition relative to control
T2 sequence (whole entry): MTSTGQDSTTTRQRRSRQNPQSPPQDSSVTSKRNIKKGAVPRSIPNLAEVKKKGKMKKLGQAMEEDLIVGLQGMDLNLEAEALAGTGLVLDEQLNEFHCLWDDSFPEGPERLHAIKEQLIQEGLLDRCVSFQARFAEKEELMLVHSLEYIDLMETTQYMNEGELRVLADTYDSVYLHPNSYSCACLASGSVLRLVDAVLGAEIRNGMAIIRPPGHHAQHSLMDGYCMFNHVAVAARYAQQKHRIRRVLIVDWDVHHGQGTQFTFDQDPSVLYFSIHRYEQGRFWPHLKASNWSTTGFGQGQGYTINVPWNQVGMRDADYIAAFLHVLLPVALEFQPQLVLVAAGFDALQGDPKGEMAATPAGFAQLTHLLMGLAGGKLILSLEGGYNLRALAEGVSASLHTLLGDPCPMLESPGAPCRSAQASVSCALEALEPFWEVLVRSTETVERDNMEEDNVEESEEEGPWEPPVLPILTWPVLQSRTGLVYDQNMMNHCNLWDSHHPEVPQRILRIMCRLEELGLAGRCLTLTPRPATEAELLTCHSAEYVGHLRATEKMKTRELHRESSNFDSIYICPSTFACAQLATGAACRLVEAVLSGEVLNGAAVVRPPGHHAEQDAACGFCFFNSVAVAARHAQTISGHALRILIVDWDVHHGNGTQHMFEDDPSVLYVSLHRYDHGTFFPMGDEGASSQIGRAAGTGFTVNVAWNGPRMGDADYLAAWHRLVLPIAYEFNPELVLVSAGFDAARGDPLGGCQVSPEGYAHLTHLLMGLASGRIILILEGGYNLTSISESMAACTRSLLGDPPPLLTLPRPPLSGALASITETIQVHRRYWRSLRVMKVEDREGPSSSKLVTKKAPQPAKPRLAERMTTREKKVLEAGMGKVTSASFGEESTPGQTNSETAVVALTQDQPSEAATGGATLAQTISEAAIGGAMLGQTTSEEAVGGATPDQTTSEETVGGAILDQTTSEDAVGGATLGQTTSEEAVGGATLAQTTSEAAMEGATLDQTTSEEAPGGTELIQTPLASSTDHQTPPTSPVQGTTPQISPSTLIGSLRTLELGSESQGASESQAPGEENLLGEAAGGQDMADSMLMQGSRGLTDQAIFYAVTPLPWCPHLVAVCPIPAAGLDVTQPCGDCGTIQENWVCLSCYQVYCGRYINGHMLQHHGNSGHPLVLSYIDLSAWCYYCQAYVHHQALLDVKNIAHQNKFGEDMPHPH

[6] = tested on: PLC-PRF-5; assay: Antiproliferative activity against human PLC-PRF-5 cells assessed as inhibition of cell growth measured after 72 hrs by MTT assay; type: functional, cell-based; conditions: PLC-PRF-5, 72 h
[7] = biological target: Histone deacetylase 1 (Homo sapiens, UniProt Q13547); assay: Inhibition of HDAC1 (unknown origin) using Ac-peptide as a substrate pretreated for 15 mins followed by substrate addition
Chain of Histone deacetylase 1 (Q13547 whole entry): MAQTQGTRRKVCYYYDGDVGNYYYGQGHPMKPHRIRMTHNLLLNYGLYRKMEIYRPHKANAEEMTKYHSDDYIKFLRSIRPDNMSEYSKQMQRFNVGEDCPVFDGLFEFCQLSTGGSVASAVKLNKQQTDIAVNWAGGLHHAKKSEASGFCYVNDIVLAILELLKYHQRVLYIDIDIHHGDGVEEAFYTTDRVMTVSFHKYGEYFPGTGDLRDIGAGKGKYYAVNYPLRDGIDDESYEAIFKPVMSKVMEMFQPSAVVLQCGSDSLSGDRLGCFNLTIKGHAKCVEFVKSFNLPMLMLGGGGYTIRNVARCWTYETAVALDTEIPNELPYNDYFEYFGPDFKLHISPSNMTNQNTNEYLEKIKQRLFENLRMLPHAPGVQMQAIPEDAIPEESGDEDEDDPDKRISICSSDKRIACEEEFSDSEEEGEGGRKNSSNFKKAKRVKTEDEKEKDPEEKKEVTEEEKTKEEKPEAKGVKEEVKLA

[8] = biological target: T3, Protein deacetylase HDAC6 (Homo sapiens, UniProt Q9UBN7); assay: Inhibition of HDAC6 (unknown origin) using Ac-peptide as a substrate pretreated for 15 mins followed by substrate addition
T3 sequence (Q9UBN7 whole entry): T2 sequence (whole entry)

[9] = tested on: HepG2; assay: Antiproliferative activity against human HepG2 cells assessed as inhibition of cell growth measured after 72 hrs by MTT assay; type: functional, cell-based; conditions: HepG2, 72 h
[10] = tested on: Huh-7; assay: cells; type: functional, cell-based; conditions: Homo sapiens, Huh-7, 72 h
Description: Antiproliferative activity against human Huh-7 cells assessed as inhibition of cell growth measured after 72 hrs by MTT assay

[11] = biological target: T4, Histone deacetylase (Homo sapiens) (UniProt Q13547+O15379+Q9UBN7+Q92769+Q9UQL6+Q8WUI4+Q9BY41+Q96DB2+P56524+Q9UKV0+Q969S8); assay: Inhibition of HDAC in human HepG2 cells assessed as upregulation of alpha-tubulin acetylation at 6 uM measured after 24 hrs by western blot analysis; type: cell-based
[12] = tested on: Hep 3B2; assay: cells; type: functional, cell-based; conditions: Homo sapiens, Hep3B, 72 h
Description: Antiproliferative activity against human Hep3B cells assessed as inhibition of cell growth measured after 72 hrs by MTT assay

[13] = tested on: CNE-2; assay: cells; type: functional, cell-based; conditions: Homo sapiens, CNE-2, 72 h
Description: Antiproliferative activity against human CNE-2 cells assessed as inhibition of cell growth measured after 72 hrs by MTT assay

[14] = tested on: Bel-7402; assay: Antiproliferative activity against human Bel-7402 cells assessed as inhibition of cell growth measured after 72 hrs by MTT assay; type: functional, cell-based; conditions: Bel-7402, 72 h
[15] = tested on: MDA-MB-231; assay: cells; type: functional, cell-based; conditions: Homo sapiens, MDA-MB-231, 72 h
Description: Antiproliferative activity against human MDA-MB-231 cells assessed as inhibition of cell growth measured after 72 hrs by MTT assay

[16] = tested on: SNU-423; assay: Antiproliferative activity against human SNU-423 cells assessed as inhibition of cell growth measured after 72 hrs by MTT assay; type: functional, cell-based; conditions: SNU-423, 72 h
[17] = tested on: SK-HEP1; assay: cells; type: functional, cell-based; conditions: Homo sapiens, SK-HEP1, 72 h
Description: Antiproliferative activity against human SK-HEP1 cells assessed as inhibition of cell growth measured after 72 hrs by MTT assay

[18] = tested on: HCT-116; assay: cells; type: functional, cell-based; conditions: Homo sapiens, HCT-116, 72 h
Description: Antiproliferative activity against human HCT-116 cells assessed as inhibition of cell growth measured after 72 hrs by MTT assay

[19] = biological target: Histone deacetylase 3 (Homo sapiens, UniProt O15379); assay: Inhibition of HDAC3 (unknown origin) using Ac-peptide as a substrate pretreated for 15 mins followed by substrate addition
Chain of Histone deacetylase 3 (O15379 whole entry): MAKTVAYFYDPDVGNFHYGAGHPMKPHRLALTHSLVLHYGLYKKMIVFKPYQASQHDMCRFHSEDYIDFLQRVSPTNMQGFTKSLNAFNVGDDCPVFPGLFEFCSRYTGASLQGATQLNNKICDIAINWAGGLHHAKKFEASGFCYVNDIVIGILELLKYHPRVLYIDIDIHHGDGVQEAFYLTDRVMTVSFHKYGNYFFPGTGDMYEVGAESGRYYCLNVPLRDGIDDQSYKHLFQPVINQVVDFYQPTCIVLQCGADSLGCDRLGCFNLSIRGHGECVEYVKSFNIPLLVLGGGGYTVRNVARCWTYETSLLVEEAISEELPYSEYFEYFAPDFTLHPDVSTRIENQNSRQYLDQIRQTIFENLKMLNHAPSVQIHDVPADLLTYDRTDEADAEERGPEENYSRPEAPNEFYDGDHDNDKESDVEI

[20] = biological target: Histone deacetylase 2 (Homo sapiens, UniProt Q92769)
Chain of Histone deacetylase 2 (Q92769 whole entry): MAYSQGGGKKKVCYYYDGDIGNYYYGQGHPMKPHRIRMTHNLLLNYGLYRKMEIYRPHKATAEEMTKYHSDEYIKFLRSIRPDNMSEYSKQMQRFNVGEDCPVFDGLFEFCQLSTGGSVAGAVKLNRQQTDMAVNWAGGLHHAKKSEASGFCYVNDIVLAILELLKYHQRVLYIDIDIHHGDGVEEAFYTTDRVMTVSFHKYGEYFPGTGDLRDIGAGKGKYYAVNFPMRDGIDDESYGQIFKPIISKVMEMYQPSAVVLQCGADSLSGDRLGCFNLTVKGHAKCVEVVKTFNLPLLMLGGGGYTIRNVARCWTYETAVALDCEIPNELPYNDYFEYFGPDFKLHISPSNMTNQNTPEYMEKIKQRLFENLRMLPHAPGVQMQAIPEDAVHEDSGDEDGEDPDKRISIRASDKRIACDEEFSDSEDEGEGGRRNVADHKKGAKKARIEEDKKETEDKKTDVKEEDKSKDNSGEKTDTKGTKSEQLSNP

[21] = tested on: MCF7; assay: cells; type: functional, cell-based; conditions: Homo sapiens, MCF7, 72 h
Description: Antiproliferative activity against human MCF7 cells assessed as inhibition of cell growth measured after 72 hrs by MTT assay

[22] = tested on: HeLa; assay: cells; type: functional, cell-based; conditions: Homo sapiens, 72 h
Description: Antiproliferative activity against human HeLa cells assessed as inhibition of cell growth measured after 72 hrs by MTT assay

[23] = biological target: T4, Histone deacetylase (Homo sapiens); assay: Inhibition of HDAC in human HepG2 cells assessed as upregulation of histone H3 acetylation at 6 uM measured after 24 hrs by western blot analysis; type: cell-based
[24] = tested on: L02; assay: cells; type: ADME, cell-based; conditions: Homo sapiens, L02, 72 h
Description: Cytotoxicity against human L02 cells assessed as reduction in cell viability measured after 72 hrs by MTT assay

[25] = tested on: A549; assay: cells; type: functional, cell-based; conditions: Homo sapiens, A549, 72 h
Description: Antiproliferative activity against human A549 cells assessed as inhibition of cell growth measured after 72 hrs by MTT assay

## Nc1nc2cc(-c3nn(CCCCCCCC(=O)NO)c4ncnc(N)c34)ccc2o1
[1]
  inhibition: 99.6%
[2]
  pIC50: 6.48
[3]
  remaining at 1 h, 10 ug/ml: 63.9%
[4]
  selectivity ratio: 2.21
[5]
  inhibition: 99.1%
[6]
  pIC50: 4.52
[7]
  pIC50: 8.60
[8]
  pIC50: 8.17
[9]
  pIC50: 5.44
[10]
  pIC50: 5.56
[11]
  inhibition: Active
[12]
  pIC50: 4.99
[13]
  pIC50: 5.65
[14]
  pIC50: 4.88
[15]
  pIC50: 5.54
[16]
  pIC50: 6.55
[17]
  pIC50: 4.97
[18]
  pIC50: 5.50
[19]
  pIC50: 8.15
[20]
  pIC50: 8.47
[21]
  pIC50: 5.14
[22]
  pIC50: 4.89
[23]
  inhibition: Active
[24]
  pIC50: 5.09
[25]
  pIC50: 5.08

Reference: ChEMBL document CHEMBL4842376, “Design, synthesis and biological evaluation of novel hybrids targeting mTOR and HDACs for potential treatment of hepatocellular carcinoma” (Eur J Med Chem, 2021)
